Results: patent US12403167B2, “Phenylethanoid glycoside extract from Acanthus ilicifolius L., preparation method thereof and use as anti-liver injury medicament” (OCEAN UNIVERSITY OF CHINA, priority 2019, dated 2025)

Tests used:
[1] = system: CCl4-induced acute liver injury mice; test: Serum ALT, AST, SOD and MDA in CCl4-induced liver injury mice; type: in vivo; settings: 150 mg/kg once/d for 3 days before CCl4; blood 8 h after CCl4; n = 8, x ± s
Experimental: (§1) Forty eight C57 mice (20-22 g) of both genders were supplied by the Experimental Animal Center of Hubei Province, China (NO. 42000600033017). The above 48 mice were randomly divided into 6 groups (8 mice each group), and the phenylethanoid glycoside extract of the present disclosure (the phenylethanoid glycoside group, APhGs) were intraperitoneally injected with the doses of 300 mg/kg (high dose group), 150 mg/kg (medium dose group), and 75 mg/kg (low dose group). The positive group was given silybin (150 mg/kg), and the normal group, as well as model group was given normal saline. All groups were treated as above once/d for 3 consecutive days. Two hours after the last administration, the normal group was intraperitoneally injected with 15 μL of olive oil/mouse, and the other groups were intraperitoneally injected with 15 μL of 50% CCl4 (diluted with olive oil 1:1)/mouse. Eight hours later, all the mice were anesthetized. Then blood was collected by cardiac puncture, and liver tissue was collected for testing biochemical indexes and making pathological sections.
The detection of alanine aminotransferase (ALT) and aspartate aminotransferase (AST) of serum samples from each group mice were conducted according to the instructions of ELISA kit for ALT and AST. The absorbances (OD values) of serum ALT and AST at 450 nm were obtained by a microplate reader. The ALT and AST enzyme activities were calculated based on the OD values.
The detection of superoxide dismutase (SOD) and malondialdehyde (MDA) of serum samples from each group of mice were conducted according to the instructions of ELISA kit for SOD and MDA. The OD values of serum SOD at 550 nm and MDA at 532 nm were obtained by a microplate reader, respectively. The SOD and MDA enzyme activities were calculated based on the OD values.
Immunohistochemical analysis software: Image-pro plus 6.0 (Media Cybernetics, Inc., Rockville, MD, USA); experimental data statistical software: GraphPad Prism 7. The results were represented by mean values ±standard deviation (x±s). The difference P<0.05 meant statistically significant.

[2] = system: CCl4-induced acute liver injury mice; test: SOD and MDA in liver tissue homogenate of CCl4-induced liver injury mice; type: in vivo; settings: 150 mg/kg once/d for 3 days before CCl4; liver 8 h after CCl4; n = 8, x ± s
Experimental: as §1, with “Then blood was collected by cardiac puncture, and liver tissue was collected for testing biochemical indexes and making pathological sections.” left out
The detection of SOD and MDA of liver homogenate samples from each group mice were conducted according to the instructions of ELISA kit for SOD and MDA. The OD values of liver SOD at 550 nm and MDA at 532 nm were obtained by a microplate reader, respectively. The SOD and MDA enzyme activities were calculated based on the OD values. […]

L-02 hepatocytes = test: CCl4-induced L-02 hepatocyte damage, CCK-8 cell viability; type: cell-based; settings: 20 μg/mL, 15 mM CCl4, 24 h, CCl4 model group 24.22±0.33%
Experimental: L-02 hepatocytes were provided by the China Center for Type Culture Collection (CCTCC). The L-02 hepatocytes were cultured in a medium containing 1640 complete culture medium and DMEM complete medium with 5% CO2 at a constant temperature (37° C.). The cells were harvested in the exponential growth phase. A suspension of 1×10^6 cells/mL was prepared, and then 100 μL of this suspension was added to each well of a 96-well plate with tested medium. The groups were divided into: normal group, negative control group, CCl4 model group, positive group (silybin), and high-, medium-, and low-dosage APhGs groups. After incubation for 24 h, the cells in the experimental group and the positive group were treated with different concentrations of APhGs and silybin. Both the CCl4 model group and the negative control group were added with the same amount of DMSO. Each treatment was repeated five times. […]
Determination of cell viability: 10 μL of CCK8 was added to each well to incubate at 37° C. for 2 h. The culture plates were measured with a microplate reader to obtain the absorbances at 450 nm. The cell viability values were calculated by the following formula: Cell viability (%)=(ODsample−ODblank)×100/(ODcontrol−ODblank)
ODsample was the absorbance of the experimental group, ODcontrol was the absorbance of the negative control group, ODblank was the absorbance of the blank control.

SMILES: COc1cc(C2Oc3cc([C@H]4Oc5cc(O)cc(O)c5C(=O)[C@@H]4O)ccc3OC2CO)ccc1O (stereo partly shown) [Positive group, silybin]
- serum ALT [1]: 736.27 U/L
- serum AST [1]: 776.68 U/L
- serum MDA [1]: 8.32 µM
- serum SOD [1]: 743.47 U/mL
- liver tissue MDA [2]: 0.56 ± 0.08 nmol/mg prot
- liver tissue SOD [2]: 610.91 U/mg prot
- cell survival rate (L-02 hepatocytes): 35.92±2.15%
